These results are taken from US11690899B2, “Combination of bactericidal agent with a lysosomotropic alkalinising agent for the treatment of a bacterial infection” (priority 2015, dated 2023).

In test [1] the test system is S. aureus Cowan. Briefly: S. aureus Cowan-infected A549 cells treated with flucloxacillin and lysosomotropic alkalinizing agents (intracellular persisters, SCVs). It is filed as cell-based, Staphylococcus aureus. The settings on record: for effect on phagolysosomal pH: infected host cells. The protocol:
Reduction of S. aureus persisters through phagolysosome alkalinization. S. aureus Cowan-infected A549 cells were treated with flucloxacillin alone (control) or supplemented with lysosomotropic alkalinizing agents (chloroquine (a), bafilomycin A1 (b) and ammonium chloride (c)). Colony phenotypes of viable intracellular persisting bacteria were determined and enumerated at indicated time points. Data were pooled from three independent experiments done in triplicates, mean±SEM. Two-way ANOVA found the factors time and treatment to be significant (p-value<0.01).
MSSA strain Cowan is highly invasive, but not cytotoxic which allowed maintaining this strain intracellularly over several days in the lung epithelial cell line A549. Extracellular bacteria were killed by adding a high dose of flucloxacillin to the infected host cells. Flucloxacillin is typically used to treat S. aureus endocarditis in patients. Absence of extracellular bacteria was confirmed by sterility of culture supernatants. Host cells were lysed to release intracellular bacteria and colony counts, as well as colony phenotypes, were determined at various time points. […] The number of viable intracellular persisting bacteria decreased during the course of infection while the frequency of SCVs increased and reached 5.6% after seven days.
No differences in total colony counts between control and treated cells were observed. […] No significant differences in host cell viability were observed after treatment with the alkalinizing agents.
Growth resumption of S. aureus persisters through treatment of host cells with chloroquine was assessed. […] We observed no dividing bacteria in infected host cells without chloroquine treatment.

Test [2] relates to S. aureus Cowan. Kind of test: In vivo infection model: mice infected intraperitoneally with S. aureus Cowan. Also on record: species or system Staphylococcus aureus. The protocol:
Mice were infected with S. aureus Cowan intraperitoneally. Six hours and two days post-infection mice were treated with 1 mg flucloxacillin and 0.2 mg chloroquine (+CQ). Mice treated with flucloxacillin only served as control (−CQ). †, sacrifice (a). Colony phenotypes of bacteria recovered from target tissues (b), peripheral blood and peritoneal lavage (c) were determined and enumerated. Each point represents one mouse. Horizontal bars indicate mean±SEM, n=11 mice per group. PL, peritoneal lavage. Two-way ANOVA found the factor treatment to be significant (p-value<0.01).
Mice infected with S. aureus Cowan were treated with flucloxacillin alone (control), or in combination with chloroquine (FIG. 5a).

Take `CCN(CC)CCCC(C)Nc1ccnc2cc(Cl)ccc12` (stereo not drawn) [Chloroquine, chloroquine]: the “effect on phagolysosomal pH” value in the test with S. aureus Cowan [1] is on record as “neutralized the phagolysosomal pH”. The “bacterial cell division (transmission electron microscopy)” value with S. aureus Cowan [1] (three days post-infection, vs host cells without chloroquine) was “facilitated bacterial cell division”. In addition, the “frequency of SCVs in various organs and compartments” value in the test with S. aureus Cowan [2] (1 mg flucloxacillin and 0.2 mg chloroquine at six hours and two days post-infection vs flucloxacillin only) was “significantly reduced”. In the test on S. aureus Cowan [2] (flucloxacillin with vs without chloroquine), the absolute bacterial numbers result is reported as “comparable”.

In the case of `Cl.N` [ammonium chloride], the “effect on phagolysosomal pH” value with S. aureus Cowan [1] is given as “neutralized the phagolysosomal pH”.

As to `CO/C1=C\C(C)=C\[C@@H](C)[C@@H](O)[C@@H](C)C/C(C)=C/C=C/[C@H](OC)[C@@H]([C@@H](C)[C@@H](O)[C@H](C)[C@@]2(O)C[C@@H](O)[C@H](C)[C@@H](C(C)C)O2)OC1=O` [bafilomycin A1], in the test on S. aureus Cowan [1], the “effect on phagolysosomal pH” value was “neutralized the phagolysosomal pH”.
